The NIST ThermoML archive (doi:10.1016/j.jct.2013.01.012)

Columns and labels:
[1] = mn = molality of the nth substance listed, in mol/kg; settings: 101 kPa, Liquid; for speed of sound: Sing-around technique in a fixed-path interferometer; for mass density: Vibrating tube method
[2] = refractive index (Na D-line) (dimensionless); mn = molality of the nth substance listed, in mol/kg; settings: 101 kPa, Liquid, Standard Abbe refractometry

O=P([O-])([O-])O.[K+].[K+] [dipotassium hydrogen phosphate] + O
Settings | mass density, 298.15 K [kg/m3] | mass density, 303.15 K [kg/m3] | mass density, 308.15 K [kg/m3] | refractive index, 298.15 K | refractive index, 303.15 K | refractive index, 308.15 K | speed of sound, 298.15 K [m/s] | speed of sound, 303.15 K [m/s] | speed of sound, 308.15 K [m/s]
[1], m1 = 0.1 | 1016.33 | 1015.38 | 1014.18 | – | – | – | 1512.8 | 1525.1 | 1535.6
[1], m1 = 0.3 | 1041.48 | 1040.03 | 1038.39 | – | – | – | 1542.9 | 1553.8 | 1563.4
[1], m1 = 0.5 | 1072.35 | 1071.14 | 1069.06 | – | – | – | 1574.6 | 1584.6 | 1593.3
[1], m1 = 0.7 | 1103.77 | 1103.01 | 1103.01 | – | – | – | 1607.3 | 1616.8 | 1626
[1], m1 = 0.9 | 1135.65 | 1136.16 | 1134.44 | – | – | – | 1641.6 | 1651.1 | 1657.8
[2], m1 = 0.1 | – | – | – | 1.3354 | 1.3346 | 1.334 | – | – | –
[2], m1 = 0.3 | – | – | – | 1.3404 | 1.3397 | 1.3392 | – | – | –
[2], m1 = 0.5 | – | – | – | 1.3456 | 1.3453 | 1.3445 | – | – | –
[2], m1 = 0.7 | – | – | – | 1.3506 | 1.35 | 1.3495 | – | – | –
[2], m1 = 0.9 | – | – | – | 1.3557 | 1.3554 | 1.3547 | – | – | –

O=P([O-])(O)O.[Na+] [sodium dihydrogen phosphate] + O
Settings | mass density, 298.15 K [kg/m3] | mass density, 303.15 K [kg/m3] | mass density, 308.15 K [kg/m3] | refractive index, 298.15 K | refractive index, 303.15 K | refractive index, 308.15 K | speed of sound, 298.15 K [m/s] | speed of sound, 303.15 K [m/s] | speed of sound, 308.15 K [m/s]
[1], m1 = 0.1 | 1006.23 | 1005.17 | 1004.2 | – | – | – | 1507.1 | 1519.2 | 1529.8
[1], m1 = 0.3 | 1024.26 | 1022.91 | 1021.13 | – | – | – | 1527.2 | 1538.5 | 1548.1
[1], m1 = 0.5 | 1043.03 | 1041.67 | 1039.97 | – | – | – | 1547.3 | 1558.2 | 1567.3
[1], m1 = 0.7 | 1062.08 | 1060.86 | 1060.09 | – | – | – | 1567.7 | 1577.8 | 1587.9
[1], m1 = 0.9 | 1081.28 | 1079.48 | 1080.28 | – | – | – | 1587.8 | 1579.2 | 1608.1
[2], m1 = 0.1 | – | – | – | 1.3346 | 1.334 | 1.3335 | – | – | –
[2], m1 = 0.3 | – | – | – | 1.3381 | 1.3376 | 1.3371 | – | – | –
[2], m1 = 0.5 | – | – | – | 1.3408 | 1.3412 | 1.3398 | – | – | –
[2], m1 = 0.7 | – | – | – | 1.344 | 1.3435 | 1.3428 | – | – | –
[2], m1 = 0.9 | – | – | – | 1.3492 | 1.3473 | 1.3466 | – | – | –

O=P([O-])([O-])[O-].[K+].[K+].[K+] [tripotassium phosphate] + O
Settings | mass density, 298.15 K [kg/m3] | mass density, 303.15 K [kg/m3] | mass density, 308.15 K [kg/m3] | refractive index, 298.15 K | refractive index, 303.15 K | refractive index, 308.15 K | speed of sound, 298.15 K [m/s] | speed of sound, 303.15 K [m/s] | speed of sound, 308.15 K [m/s]
[1], m1 = 0.1 | 1017.14 | 1015.62 | 1013.92 | – | – | – | 1518.2 | 1529.8 | 1539.7
[1], m1 = 0.3 | 1057.82 | 1056.83 | 1054.87 | – | – | – | 1559.7 | 1570.2 | 1578.9
[1], m1 = 0.5 | 1101.23 | 1100.46 | 1098.72 | – | – | – | 1603 | 1616.1 | 1622.8
[1], m1 = 0.7 | 1145.91 | 1145.57 | 1144.26 | – | – | – | 1658.8 | 1666.7 | 1671.9
[1], m1 = 0.9 | 1191.53 | 1191.62 | 1190.09 | – | – | – | 1716.6 | 1723.7 | 1725.1
[2], m1 = 0.1 | – | – | – | 1.3365 | 1.3357 | 1.3351 | – | – | –
[2], m1 = 0.3 | – | – | – | 1.344 | 1.3435 | 1.3426 | – | – | –
[2], m1 = 0.5 | – | – | – | 1.3517 | 1.351 | 1.3502 | – | – | –
[2], m1 = 0.7 | – | – | – | 1.3595 | 1.3588 | 1.3581 | – | – | –
[2], m1 = 0.9 | – | – | – | 1.3671 | 1.3667 | 1.3659 | – | – | –
